From ChEMBL document CHEMBL1146469, “Tasnemoxides A-C, new cytotoxic cyclic norsesterterpene peroxides from the Red Sea sponge Diacarnus erythraenus” (J Nat Prod, 2004)

Key:
Type in all cases: functional, cell-based
[1] = tested on: P388; assay: Cytotoxicity against mouse P388 cells by dilution assay
[2] = tested on: A549; assay: Cytotoxicity against human A549 cells by dilution assay
[3] = tested on: HT-29; assay: Cytotoxicity against human HT-29 cells by dilution assay

Measured: IC50

CC1=C(CCC(C)(O)/C=C/C[C@@]2(C)CC[C@H]([C@H](C)C(=O)O)OO2)C(C)(C)CCC1 (some centres undefined) [TASNEMOXIDE A]
> 1 mg/L: all assays above

C=C(CCC1=C(C)CCCC1(C)C)C(O)CC[C@@]1(C)CC[C@H]([C@H](C)C(=O)O)OO1 (some centres undefined) [TASNEMOXIDE B]
> 1 mg/L: all assays above

C=C(CCC[C@@]1(C)CC[C@H]([C@H](C)C(=O)OC)OO1)CCC1(O)C(=C)CCCC1(C)C (some centres undefined) [TASNEMOXIDE C]
> 1 mg/L: all assays above
